Key:
patients = conditions: long-term treatment, nebulized; cited from earlier work
[1] = test system: Na^+ currents in GH3 cells; assay: Tonic block of Na+ currents in GH3 cells, whole cell patch clamp; type: cell-based, Rat; conditions: for IC50: GH3 cells, holding potential −80 mV to +60 mV step pulse, read-out: IC50, blockade of Na+ currents
Experimental: Ion channel currents were recorded by means of a patch clamp technique. The cells cultured on the cover glass were placed in a chamber fixed to a microscope stage and continuously perfused with extracellular Saline (A) solution (in mM); 150 NaCl, 5 KCl, 1 MgCl2, 0.01 CaCl2, 1 EGTA, 10 HEPES, 2 BaCl2, 0.1 CdCl2, pH 7.4 at room temperature (22-25° C.) adjusted with NaOH. The cells were observed using phase contrast mode under an inverted microscope (Axiovert 100, Carl Zeiss, Oberkochem, D Germany). Tight-seal (>10 GΩ) whole cell voltage-clamp recordings were performed with an Axopatch-1D amplifier (Axon Instruments, San Mateo, Calif.). […] Fifteen minutes after rupture of the patch membrane, we started to record ion channel currents. Pulse protocols and data acquisition were controlled by Digidata 1320 interface (Axon Instruments, Palo Alto, Calif.), and acquired on a personal computer using Clampex 9 software. The Na^+ current recordings were filtered at 1 kHz and sampled at 8 kHz. About 26% of series resistance was electronically compensated. Drugs were applied to the recording chamber by gravity. Perfusion rate was maintained at 0.8-1.1 ml/min and bath volume was of 50 μl. […] Voltage-gated Na^+ currents were recorded from these cells in the presence or absence of treatment.

eosinophils of rats = assay: Cytosolic calcium increase in eosinophils stimulated with PAF (Fura 2-AM); type: cell-based, Wistar rats; conditions: PAF (1 μM); for inhibition of citosolic calcium increase compared with lidocaine: 5 min pre-incubation
Experimental: Female and male Wistar rats were used, weighing between 200 and 250 g, they came from Oswaldo Cruz Foundation's Center of Laboratory Animal Raising. The procedures involving the animals were examined and approved by Oswaldo Cruz Foundation's Committee of Animal Ethics (CEUA-FIOCRUZ, Licenca no. 00085-02).
The animals were sacrificed in a chamber of CO2 and a population of cells containing 10-15% eosinophils were recovered from the peritoneal cavity after washing the same with 20 ml Hanks, as previously described. After centrifugation, the cellular sediment was resuspended and the leukocytes subtypes (mononuclear cells, eosinophils and mast cells) separated in a discontinuous gradient of Percoll (double layer) centrifugated at 400×g for 25 minutes. The eosinophils (85-95% purity) were recovered in the interface 56%-72%, washed in RPMi medium to eliminate residue of Percoll and related. The total cells isolated was obtained after the dilution of a sample in Türk liquid and couting in Neubauer chamber with the assistance of direct-light microscopy. The populational purity analysis was done by direct-light microscopy in cytocentrifugates dyed with May-Grunwald-Giemsa.
The eosinophils (1×10^7/ml) were loaded with 3 μM Fura 2-AM as described, washed in PBS enriched with 0.1% BSA, and resuspended in a final concentration of 0.5×10^6/ml PBS containing 0.25% BSA, HEPES and glucose ([…]). Alíquotas de células (1.5 ml) were dispensed in quartz cuvettes and balanced with 1 mM calcium at 37° C. for 10 minutes before being used. Fluorescence changes were measured by fluorometer Shimatzu (model RF 1501) as previously described. The calculus of free calcium was derived from the fluorescence spectrum (wave length of excitation, 340 and 380 nm; emission 510 nm) according to the method established. The values were represented as percentage of inhibition in relation to group control. […]
The values were expressed as an average± standard error of the mean and statistically analyzed through the test of variance analysis (ANOVA), followed by the Newman-Keuls-Student test.

[2] = test system: sensitized experimental animals; assay: Pulmonary eosinophil infiltrate after ovoalbumin aerosol challenge, bronchoalveolar lavage count; type: in vivo; conditions: 5% aerosol, 30 min, with ovoalbumin 1% plus 3 aerosolizations every 3 h; lavage 24 h after challenge
Experimental: The animals were sensitized through a cutaneous injection of a mixture with 50 μg ovoalbumin and 5 mg Al(OH)3, and challenged with ovoalbumin (1%) aerosol for 30 min 14 days afterwards, according to what was previously described. In order to avoid death of animals by anaphylatic asphyxia, all of them were treated intraperitonially with the anti-histaminic difenidramine (30 mg/kg) 30 minutes before being challenged.
Bronchoalveolar Lavage and Eosinophils Counting
All the animals were anesthesized terminally through an intraperitonial injection of pentobarbital (200 mg/kg) 24 h after the antigenic challenge, to wash the bronchoalveolar space according to the techniques previously described. Total leukocyte count were done after dilution of bronchoalveolar lavage samples in Turk liquid and counting in the Neubauer chamber with the assistance of direct-light microscopy. The differential eosinophil count was done also under direct-light microscopy, after centrifugation of samples of the lavage as well as its exposure to specific dyestuff (May-Grunwald-Giemsa dye).
The averages± standard error of the mean of the groups investigated were analyzed based on statistics through the test of variance analysis (ANOVA), followed by the Newman-Keuls-Student test.
Values, expressed in terms of “number of eosinophils×10^6/lavage” are presented as average±SEM in at least 7 animals. In the negative control group, animals previously sensitized were artificially-challenged through exposure to sterile saline (NaCl, 0.9%) aerosol. […] “*” represents the difference statistically significant (P<0.05), when the group treated and the positive control group were compared.

[3] = test system: cutaneous sites of the dorsal region of adult Wistar rats; assay: Local anesthetic activity, intradermal injection in dorsal skin, response to mechanical stimulation; type: in vivo; conditions: for time of anesthesia compared with lidocaine: doses from 0.5 to 4 μMol/site
Experimental: Female and male Wistar rats, weighing between 200 and 250 g, they came from Oswaldo Cruz Foundation's Center of Laboratory Animal Raising were used. The procedures involving the animals were examined and approved by Oswaldo Cruz Foundation's Committee of Animal Ethics (CEUA-FIOCRUZ, License number 00085-02). After brief anesthesia by exposure to the atmosphere enriched with […] animals were trichotomized dorsal region, where the […] injections with substances for test were performed; doses varied from 0.5 to 4 μMol/site, and vehicule (NaCl 0.9%) (negative control), the final volume was 50 μl. Each animal took six injections and four animals were used for each tested substance. The application points were mechanically estimulated with a tweezer in order to evaluate the integrity of sensitiveness. The site was considered not to be anesthesized whenever after the mechanical stimulation it was observed a local retraction of the skin, according to what had been previously reported. The evaluations began 10 minutes after intradermal injections had been taken, which continued every five minutes until it was obtained the cutaneous retraction response. The values (average±standard error of the mean, SEM) were expressed in terms of “Time of Anesthesia” in minutes.

Row | SMILES | patients with relief of asthma symptoms and diminished dependency on steroidal anti-inflammatory treatment (patients) | IC50 [1] [mM] | blocking of the increase of citosolic calcium (eosinophils of rats; highest concentration (1 mM), Average±SEM, n=8) [%] | blocking the accumulation of eosinophils in the bronchoalveolar area [2] | Time of Anesthesia ([3]; 4 μMol/site intradermal, n=4, average±SEM) [min] | inhibition of citosolic calcium increase compared with lidocaine (eosinophils of rats) | time of anesthesia compared with lidocaine [3] | 50% inhibitory concentration, times higher than lidocaine ([1]; ratio to lidocaine IC50) [times]
1 | CCN(CC)CC(=O)Nc1c(C)cccc1C [Lidocaine, 1-(2-(dyethylamine)N-dymethylfenyl)-acetamide, reference compound] | 20 out of 24 | 0.18 | 47±2 | clearly sensitive to lidocaine treatment | 168 ± 3 | – | – | –
2 | CCN(CC)CC(=O)Nc1cccc(C)c1C [JM23-1, 2-dyethylamine-2′,3′-acetoxylidide] | – | – | – | – | – | equipotent to lidocaine | significantly inferior | –
3 | CCN(CC)CC(=O)Nc1ccc(C)cc1C [JM24-1, 2-dyethylamine-2′,4′-acetoxylidide] | – | 5.2 | – | equipotent to lidocaine | – | so effective as lidocaine and JM23-1 in higher concentrations | significantly inferior | 29
